Here are results for 1 compound from paper PMC4724696 (Acta Pharmaceutica Sinica. B, 2016).

Structures are written as SMILES.

Common to all, as to type: cell-based
One assay deals with SK-OV-3. In words: Cell proliferation assay. The note with it: Homo sapiens, SK-OV-3, 72 h, read-out: IC50 in cancer cell lines.
Assay [1] has as its system acetylation of histones H3, H4 and tubulin in HCT-116 colorectal cancer cells. Description: Western Blot analysis of Ac-H3, Ac-H4 and Ac-tubulin. The settings on record: HCT-116 cells, various concentrations, 24 h. A general note: A western blot detects proteins with antibodies after separation by electrophoresis.
The next assay concerns A375. In words: Cell proliferation assay. The settings on record: Homo sapiens, A-375, 72 h, read-out: IC50 in cancer cell lines.
For a further assay, the system named is BxPC3. Description: Cell proliferation assay. The settings on record: Homo sapiens, BXPC-3, 72 h, read-out: IC50 in cancer cell lines.

For `O=C(CCCCCCC(=O)Nc1ccccc1)NO` [SAHA, Vorinostat], the IC50 (as a rule, the concentration needed to halve the response being measured) with SK-OV-3 came to 3570 ± 740 nM; in the assay with A375, 1860 ± 420 nM; with BxPC3, 2240 ± 610 nM. Moreover, in assay [1], the “acetylation of histones H3, H4 and tubulin” value was “Increased acetylated histones and tubulin levels”.
